Read-outs that look alike come from different tables or passages of the source.
Key:
factor Xa (FXa) = assay: Anti-Xa assay (factor Xa generation inhibition; factor Xa from serum or purified); format: biochemical
Experimental: (§1) Biological Measurements of Decasaccharide Activity. In vitro anticoagulant activity was determined as described previously (Hoppensteadt, D. A., Jeske, W. P., Walenga, J. M., Fu, K., Yang, L. H., Ing, T. S., Herbert, J. M. & Fareed, J. (1999) Thromb Res 96, 115-24 and Dietrich, C. P., Paiva, J. F., Castro, R. A., Chavante, S. F., Jeske, W., Fareed, J., Gorin, P. A., Mendes, A. & Nader, H. B. (1999) Biochim Biophys Acta 1428, 273-83), according to the United States Pharmacopoeia. Thrombin (FIIa) and factor Xa (FXa) generation inhibition assays were completed essentially as described. Briefly, either AT-10 decasaccharide, Enoxaparin LMWH or the synthetic AT-III binding pentasaccharide (Penta 1) used in this study was dissolved in sterile saline at the designated concentrations. To this sample was added an equal volume of fibrinogen deficient plasma diluted 1:8 in 100 mM Tris-HCl (pH 8.5). In a separate sample, the same concentration of heparin oligosaccharide and actin was added in a 1:1 ratio to either Spectrozyme TH or FXa. In this manner, the intrinsic IIa and Xa generation was measured. In addition, to account for inhibition of thrombin and extrinsic generation of FXa, thromboplastin C was diluted 1:6 with either Spectrozyme TH or FXa. For all samples, the optical density was measured at 405 nm and results are expressed as a % inhibition compared to a unsupplemented saline control. […]

Thrombin (FIIa) = biological target: T1, Thrombin (FIIa) (Homo sapiens, UniProt P00734); assay: Anti-IIa assay (thrombin generation inhibition); format: biochemical
T1 construct: purchased Ortho Diagnostic Systems, Inc. (Raritan, N.J.) Fibrindex
Experimental: as §1

human AT-III [1] = biological target: T2, human AT-III (Homo sapiens, UniProt P01008); assay: Equilibrium fluorescence titration of AT-III with saccharide; format: binding
Experimental: Equilibrium Fluorescence Titration Experiments. Titrations of human AT-III with either AT-10 decasaccharide or heparin were completed at 25° C. using a Fluorolog 2 machine (Spex Instruments) (Meagher, J. L., Beechem, J. M., Olson, S. T. & Gettins, P. G. (1998) J Biol Chem 273, 23283-9 and Desai, U. R., Petitou, M., Bjork, I. & Olson, S. T. (1998) J Biol Chem 273, 7478-87). […] With the pH 7.4 buffer, sodium chloride was added to a final concentration of 100 mM.
Fluorescence emission spectra were collected from 300-400 nm with a 280 nm excitation wavelength and a 5 s integration time. Briefly, the titration experiments were conducted as follows—aliquots of either decasaccharide or heparin was added to a 1 μm solution of AT-III, the solution was allowed to come to equilibrium for one minute, and an emission spectrum collected. Addition of sequential saccharide aliquots and fluorescence signal was adjusted to account for protein dilution.

heparinase II = biological target: T3, heparinase II (Pedobacter heparinus, UniProt C6XZB6); assay: Exhaustive heparinase II digestion, products by MALDI-MS; format: biochemical, Flavobacterium heparinum
T3 construct: made in house
T3 sequence (C6XZB6 26-772): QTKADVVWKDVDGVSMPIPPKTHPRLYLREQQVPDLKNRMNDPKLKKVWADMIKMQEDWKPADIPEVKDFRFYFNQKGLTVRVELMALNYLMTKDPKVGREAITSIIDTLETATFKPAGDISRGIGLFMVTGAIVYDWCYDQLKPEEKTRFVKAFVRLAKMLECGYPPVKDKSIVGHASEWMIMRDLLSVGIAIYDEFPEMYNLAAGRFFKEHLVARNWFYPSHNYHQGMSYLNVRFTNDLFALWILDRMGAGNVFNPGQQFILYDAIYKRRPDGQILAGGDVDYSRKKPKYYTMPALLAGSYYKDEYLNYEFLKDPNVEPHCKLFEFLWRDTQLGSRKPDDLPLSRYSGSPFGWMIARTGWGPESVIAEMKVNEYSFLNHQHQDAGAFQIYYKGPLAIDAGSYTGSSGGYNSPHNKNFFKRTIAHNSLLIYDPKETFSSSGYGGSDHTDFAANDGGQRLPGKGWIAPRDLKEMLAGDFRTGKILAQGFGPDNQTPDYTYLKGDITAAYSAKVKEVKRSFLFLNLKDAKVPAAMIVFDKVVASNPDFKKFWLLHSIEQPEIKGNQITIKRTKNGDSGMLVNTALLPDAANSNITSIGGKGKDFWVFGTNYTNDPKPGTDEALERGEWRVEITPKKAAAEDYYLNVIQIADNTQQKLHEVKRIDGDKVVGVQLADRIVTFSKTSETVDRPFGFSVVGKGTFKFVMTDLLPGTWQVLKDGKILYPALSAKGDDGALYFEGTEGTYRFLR
Experimental: (§2) Digests. Heparinase I digests were completed as described (Venkataraman, G., Shriver, Z., Raman, R. & Sasisekharan, R. (1999) Science 286, 537-42 and Rhomberg, A. J., Ernst, S., Sasisekharan, R. & Biemann, K. (1998) Proc Natl Acad Sci USA 95, 4176-81). Heparinase II or III reactions were completed in essentially the same way at room temperature in 10 μM ovalbumin, 1 μM dextran sulfate, and 10 mM ethylenediamine, pH 7.0. Short digestions were completed with 50 nM enzyme for 10 minutes while exhaustive digests were completed with 200 nM enzyme overnight. Mass spectra were collected using parameters as outlined above (see also Shriver, Z., Raman, R., Venkataraman, G., Drummond, K., Turnbull, J., Toida, T., Linhardt, R., Biemann, K. & Sasisekharan, R. (2000) Proc Natl Acad Sci USA, 2000 Sep. 12; 97(19):10359-64) and calibrated externally by using signals for protonated (RG)19R and its complex with a nitrous acid-derived hexasaccharide of the sequence I2SHNS,6S I2SHNS,6S I2SMan6S
(§3) Enzymatic Action of the Heparinases Towards the AT-III Binding Site: Previously, we investigated the substrate specificity of heparinases I and II towards AT-10 (Rhomberg, A. J., Shriver, Z., Biemann, K. & Sasisekharan, R. (1998) Proc Natl Acad Sci USA 95, 12232-7 and Ernst, S., Rhomberg, A. J., Biemann, K. & Sasisekharan, R. (1998) Proc Natl Acad Sci USA 95, 4182-7). These studies, however, were carried out assuming a published structure (Toida, T., Hileman, R. E., Smith, A. E., Vlahova, P. I. & Linhardt, R. J. (1996) J Biol Chem 271, 32040-7). In light of the newly determined structure of AT-10 described herein (see also Shriver, Z., Raman, R., Venkataraman, G., Drummond, K., Turnbull, J., Toida, T., Linhardt, R., Biemann, K. & Sasisekharan, R. (2000) Proc Natl Acad Sci USA, 2000 Sep. 12; 97(19):10359-64), we reexamined the enzymatic action of heparinases I, II, and III towards oligosaccharides containing a 3-O sulfate that is critical for high affinity AT-III binding. For these studies, we used three oligosaccharides, two pentasaccharides (Penta 1 and Penta 2, FIG. 5) and a hexasaccharide (Hexa 1, FIG. 5). […]
(§4) Compositional Analysis: UFH was subjected to exhaustive depolymerization with an enzyme cocktail made up of Heparinase I, Heparinase II, and Heparinase III. […] The samples were analyzed by CE in reverse polarity with a running buffer of 50 mM tris/phosphate, 10 μM dextran sulfate, pH 2.5. […] Each sample was digested in duplicate and the experiment was repeated twice for each sample, resulting in four readings per sample. All of the 8 resulting peaks were collected, and the purity of the collected samples was checked by re-injecting into CE, and their mass was measured by offline MALDI Mass Spectrometry. […]

heparinase I = biological target: T4, heparinase I (Pedobacter heparinus, UniProt Q05819); assay: Exhaustive heparinase I digestion, products by MALDI-MS; format: biochemical, Flavobacterium heparinum
T4 construct: made in house
T4 sequence (Q05819 22-384): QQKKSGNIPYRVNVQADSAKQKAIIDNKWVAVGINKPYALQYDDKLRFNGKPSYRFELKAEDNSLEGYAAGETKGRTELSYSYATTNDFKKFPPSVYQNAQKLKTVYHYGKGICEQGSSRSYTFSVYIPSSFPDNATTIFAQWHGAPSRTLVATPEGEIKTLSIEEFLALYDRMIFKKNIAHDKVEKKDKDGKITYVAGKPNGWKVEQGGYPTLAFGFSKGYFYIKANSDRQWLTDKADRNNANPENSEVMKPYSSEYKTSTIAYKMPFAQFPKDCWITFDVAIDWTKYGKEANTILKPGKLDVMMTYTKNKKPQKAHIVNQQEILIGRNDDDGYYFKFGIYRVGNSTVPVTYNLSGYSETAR
Experimental: as §2, §3, §4

heparinase III = biological target: T5, heparinase III (Pedobacter heparinus, UniProt Q59289); assay: Exhaustive heparinase III digestion, products by MALDI-MS; format: biochemical, Flavobacterium heparinum
T5 construct: made in house
T5 sequence (Q59289 25-659): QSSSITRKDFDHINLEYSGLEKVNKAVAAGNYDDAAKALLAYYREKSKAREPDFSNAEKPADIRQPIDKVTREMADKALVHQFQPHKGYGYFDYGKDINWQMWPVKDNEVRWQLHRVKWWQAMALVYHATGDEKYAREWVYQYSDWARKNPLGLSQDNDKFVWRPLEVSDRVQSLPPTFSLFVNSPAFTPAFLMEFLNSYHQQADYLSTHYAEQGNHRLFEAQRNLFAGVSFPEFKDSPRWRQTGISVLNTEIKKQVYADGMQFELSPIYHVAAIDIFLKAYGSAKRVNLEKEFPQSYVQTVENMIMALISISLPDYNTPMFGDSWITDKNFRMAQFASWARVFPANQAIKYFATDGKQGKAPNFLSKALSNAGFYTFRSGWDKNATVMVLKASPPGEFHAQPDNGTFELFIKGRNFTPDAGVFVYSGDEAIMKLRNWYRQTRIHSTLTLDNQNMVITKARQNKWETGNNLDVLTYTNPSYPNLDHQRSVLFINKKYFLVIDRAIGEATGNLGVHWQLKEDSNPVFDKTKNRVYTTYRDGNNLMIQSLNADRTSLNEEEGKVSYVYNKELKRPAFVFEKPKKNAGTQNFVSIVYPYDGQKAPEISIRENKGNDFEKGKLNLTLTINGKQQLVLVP
Experimental: as §2, §3, §4

whole blood = assay: HepTest
Experimental: Whole blood data were also used to determine the anticoagulant activity of AT-10. The assays, activated partial thromboplastin time (APTT) and prothrombin time (PT) was conducted in a manner similar to what has been previously reported (Dietrich, C. P., Paiva, J. F., Castro, R. A., Chavante, S. F., Jeske, W., Fareed, J., Gorin, P. A., Mendes, A. & Nader, H. B. (1999) Biochim Biophys Acta 1428, 273-83). APTT reagent was obtained from Organon Teknika (Durham, N.C.) and HepTest Reagent was obtained from Haemachem (St. Louis, Mo.).

human AT-III [2] = biological target: T2, human AT-III; conditions: Desai et al. 1998; cited from earlier work

Compound: CC(=O)NC1C(OC2C(C(=O)O)OC(OC3C(COS(=O)(=O)O)OC(O)C(NS(=O)(=O)O)C3OS(=O)(=O)O)C(O)C2O)OC(COS(=O)(=O)O)C(OC2OC(C(=O)O)C(OC3OC(COS(=O)(=O)O)C(OC4OC(C(=O)O)C(OC5OC(COS(=O)(=O)O)C(OC6OC(C(=O)O)C(OC7OC(COS(=O)(=O)O)C(OC8OC(C(=O)O)=CC(O)C8OS(=O)(=O)O)C(O)C7NS(=O)(=O)O)C(O)C6OS(=O)(=O)O)C(O)C5NS(=O)(=O)O)C(O)C4OS(=O)(=O)O)C(O)C3NS(=O)(=O)O)C(O)C2O)C1O [AT-10, ΔU2SHNS,6SI2SHNS,6SI2SHNS,6SIHNAc,6SGHNS,3S,6S]
- IC50 (factor Xa (FXa)): 0.28 µM
- anti-IIa activity (in words) (Thrombin (FIIa)): neither the decasaccharide nor the pentasaccharide have significant anti-IIa activity
- Kd (human AT-III [1]; pH 6.0 I=0.025, read-out: KD for AT-III): 0.8 µM
- Kd (human AT-III [1]; pH 6.2, read-out: apparent KD for AT-III): 0.8 µM
- affinity for AT-III (in words) (human AT-III [1]; pH 7.4, I=0.15): very little affinity

Compound: CC(=O)NC1C(OC2C(C(=O)O)OC(OC3C(COS(=O)(=O)O)OC(O)C(NS(=O)(=O)O)C3OS(=O)(=O)O)C(O)C2O)OC(COS(=O)(=O)O)C(OC2OC(C(=O)O)C(OC3OC(COS(=O)(=O)O)C(OC4OC(C(=O)O)=CC(O)C4OS(=O)(=O)O)C(O)C3NS(=O)(=O)O)C(O)C2O)C1O [Hexa 1, ΔU2SHNS,6SIHNAc,6S, GHNS,3S,6S]
- cleavage by heparinase II (heparinase II): susceptible
- cleavage by heparinase I (heparinase I): not cleaved
- cleavage by heparinase III (heparinase III): susceptible

Compound: CO[C@H]1O[C@H](COS(=O)(=O)O)[C@@H](O[C@@H]2O[C@@H](C(=O)O)[C@@H](O[C@H]3O[C@H](COS(=O)(=O)O)[C@@H](O[C@@H]4O[C@H](C(=O)O)[C@@H](O[C@H]5O[C@H](COS(=O)(=O)O)[C@@H](O)[C@H](O)[C@H]5NS(=O)(=O)O)[C@H](O)[C@H]4O)[C@H](OS(=O)(=O)O)[C@H]3NS(=O)(=O)O)[C@H](O)[C@H]2OS(=O)(=O)O)[C@H](O)[C@H]1NS(=O)(=O)O [Penta 1, HNS,6SGHNS,3S,6SI2SHNS,6S,OMe]
- HepTest activity (in words) (whole blood): significantly higher activity than the AT-10 decasaccharide
- IC50 (factor Xa (FXa)): 0.039 µM
- cleavage by heparinase II (heparinase II): cleave
- anti-IIa activity (in words) (Thrombin (FIIa)): neither the decasaccharide nor the pentasaccharide have significant anti-IIa activity
- affinity for AT-III, previous studies (in words) (human AT-III [2]): affinity similar to that of full length heparin
- cleavage by heparinase I (heparinase I): cleave
- cleavage by heparinase III (heparinase III): not cleavable

Compound: CO[C@H]1O[C@H](COS(=O)(=O)O)[C@@H](O[C@@H]2O[C@@H](C(=O)O)[C@@H](O[C@H]3O[C@H](COS(=O)(=O)O)[C@@H](O[C@@H]4O[C@H](C(=O)O)[C@@H](O[C@H]5O[C@H](COS(=O)(=O)O)[C@@H](O)[C@H](O)[C@H]5NS(=O)(=O)O)[C@H](O)[C@H]4O)[C@H](O)[C@H]3NS(=O)(=O)O)[C@H](O)[C@H]2OS(=O)(=O)O)[C@H](O)[C@H]1NS(=O)(=O)O [Penta 2, HNS,6SGHNS,6SI2SHNS,6S,OMe]
- cleavage by heparinase II (heparinase II): efficiently cleave
- cleavage by heparinase I (heparinase I): efficiently cleave
- cleavage by heparinase III (heparinase III): efficiently cleave

Compound: CC(=O)N[C@H]1[C@@H](O[C@H]2[C@H](O)[C@@H](O)[C@H](O[C@H]3[C@H](OS(=O)(=O)O)[C@@H](NS(=O)(=O)O)C(O)O[C@@H]3COS(=O)(=O)O)O[C@@H]2C(=O)O)O[C@H](COS(=O)(=O)O)[C@@H](O[C@@H]2OC(C(=O)O)=C[C@H](O)[C@H]2O)[C@@H]1O (stereo partly drawn) [ΔUHNAC,6SGHNS,3S,6S]
- cleavage by heparinase II (heparinase II): resistant to further degradation
- cleavage by heparinase I (heparinase I): resistant to further degradation
- cleavage by heparinase III (heparinase III): resistant to further degradation
